# Reference: a melting point compilation (Tetko et al.)
row,SMILES,melting point [°C]
1,FC(F)(F)S(F)(F)(F)(F)F,-87
2,CNC[C@H](O)[C@@H](O)[C@H](O)[C@H](O)CO,128
3,O=C(CCCCl)c1ccc(F)cc1,6
4,CC12CCC(C(=C/O)/C1=N\NC(N)=O)C2(C)C (stereo not given),205 to 206
5,O=C1N(c2ccccc2)N(c2ccccc2/N=N\c2ccccc2)C1(c1ccccc1)c1ccccc1,163
6,N=C(N)NCCCC(NC(=O)c1ccccc1)C(=O)O (stereo not given),285
7,S=C1NCCCN1,211
8,N#Cc1nc(C#N)nc(C#N)n1,119
9,Cc1cc(OC(=O)N(C)C)nn1C(=O)N(C)C,69.5
10,Cn1cnc([N+](=O)[O-])c1Sc1ncnc2nc[nH]c12,244
11,Cc1nn(C(=O)OC(C)(C)C)c(C)c1C=O,59 to 62
12,CNC(C)C(O)c1ccc(O)cc1 (stereo not given),153
13,O=C(NC(Cc1ccccc1)c1ccccc1)c1cccnc1 (stereo not given),159
14,OCC1CCCN2CCCCC12 (stereo not given),70
15,CCCCC(CC)C(=O)O (stereo not given),-59
16,COc1cc2c(cc1OC)C(CC#N)NCC2 (stereo not given),110 to 114
17,S=C=Nc1ccc2c(c1)OCCO2,64 to 66
18,CC(=O)c1ccc2c(c1)OCCO2,83
19,CCOC(=O)C=Cc1cc(C=CC(=O)OCC)c([N+](=O)[O-])cc1[N+](=O)[O-],116
20,O=C(O)c1csnn1,233 to 235

row,SMILES,melting point [°C]
1,O=C(c1ccc2c(c1O)CC=CC2)c1cccc2ccccc12,132
2,CCCCCCOC(=O)CCCC,-63.1
3,N#CC(C(N)=O)=C(SCc1ccccc1)SCc1ccccc1,104
4,CCOC(=O)CSc1ncc(C(=O)OC)n1C,35 to 36
5,CCC(C)c1cccc(C(C)CC)c1O (stereo not given),-42
6,CCCCCCCOC(C)=O,-50.2
7,COC(=O)c1csc(C=O)c1,115
8,O=C(O)C=Cc1ccc(N2CCCC2)c([N+](=O)[O-])c1,243 to 245
9,O=C(O)C(Br)C(Br)c1cccc(C(Br)C(Br)C(=O)O)c1 (stereo not given),225
10,COc1cc(OC)nc(NC(=O)NS(=O)(=O)c2ncccc2C(=O)N(C)C)n1,145
11,CC(N)CC(=O)O (stereo not given),193
12,CC(C)C1(Cc2ccco2)C(=O)NC(=O)NC1=O,169
13,Cc1cc2c(o1)-c1c(oc3c(Br)cc(Br)cc13)CCC2C (stereo not given),121
14,CCCCCCCCCCCCCCCCCC[Si](OC)(OC)OC,15
15,O=P(O)(O)CCCCP(=O)(O)O,219 to 221
16,CCC1CN2CCc3c([nH]c4cccc(OC)c34)C2CC1C(=COC)C(=O)OC (stereo not given),104
17,CCC1(O)C(=O)OCc2c1cc1n(c2=O)Cc2cc3c(CN(C)C)c(O)ccc3nc2-1 (stereo not given),216
18,CC(C)(C)C(N)C(=O)O (racemic),300
19,CCCCCCCC(=O)c1ccc(NC(C)=O)cc1,123
20,CC12CCC3C(CCC4CC(O)(C#CCl)CCC43C)C1CCC2O (stereo not given),120

row,SMILES,melting point [°C]
1,CCC1(O)CCC2C3CCC4=CCCCC4C3CCC21C (stereo not given),77
2,N#Cc1cc2cc3c4c(c2oc1=O)CCCN4CCC3,250
3,COc1ccccc1C1(C)CCc2oc3c(Br)cc(Br)cc3c2-c2oc(C)cc21 (stereo not given),194
4,O=C(Oc1ccc(OC(=O)c2ccccc2)cc1)c1ccccc1,115
5,O=[N+]([O-])c1ccc(CBr)cc1,99
6,CC(=O)C12OC1CC1C3CCC4=CC(=O)CCC4(C)C3C(O)CC12C (stereo not given),206
7,CC(C)(Cl)CCC(C)(C)Cl,67.5
8,Clc1c(Cl)c(Cl)c2c(c1Cl)Oc1c(Cl)c(Cl)c(Cl)c(Cl)c1O2,330
9,COC(=O)c1ccccc1SCC(C)=O,60 to 61
10,O=C(O)CC(=O)O,136
11,c1ccc(Cc2c3ccccc3c(Cc3ccccc3)c3ccccc23)cc1,246
12,O=C1CCN(C(=O)c2ccccc2)CC1,56 to 59
13,CN1CC(C(=O)O)CC1=O (stereo not given),152
14,CC(=O)OCC(=O)C1(O)C(OC(C)=O)CC2C3CCC4=CC(=O)C=CC4(C)C3(F)C(O)CC21C (stereo not given),235
15,CCCCCCCCCCCCCCCCCC#N,41
16,CNC1CC2OC(C)(C1OC)n1c3ccccc3c3c4c(c5c6ccccc6n2c5c31)C(=O)NC4 (stereo not given),270
17,CCC1C(=O)CCC1=O,172 to 175
18,CCN(CC)c1c([N+](=O)[O-])cc(C(F)(F)F)c(N)c1[N+](=O)[O-],98.5
19,N#CCSc1nc(=O)[nH]c2c1CCCC2,223 to 225
20,NCCCCCCCCCCN,62.5

# Continued, values first:
row,melting point [°C],SMILES
1,118 to 119,CC(=O)Nc1ccccc1C#Cc1ccccc1
2,154 to 156,O=Cc1cc(Cl)c(O)c(Cl)c1
3,348,CC1(C)CC(=O)C2=C(C1)Nc1ccc3ccccc3c1C2c1ccc(Cl)cc1Cl (stereo not given)
4,99,c1ccc2c(c1)NCCN2
5,130,COC(=O)c1ccc2cc(OC)ccc2c1
6,89,C=Cc1c(Cl)cccc1Cl
7,22.5 to 24.5,Clc1nccnc1Cl
8,213 to 214,CSc1nc(-c2ccc(C)cc2)nc(N)c1C#N
9,118 to 122,Nc1ccccc1S(=O)(=O)c1ccccc1
10,150 to 156,COc1ccc(-c2cc(C(F)(F)F)[nH]n2)cc1OC
11,183 to 185,Cc1cc(Oc2ccc(C(N)=NO)cc2[N+](=O)[O-])cc(C)c1Cl
12,160 to 165,O=C(O)c1nccc2ccccc12
13,153,Nc1c(CN2CCCCCC2)c(=O)oc2ccccc12
14,67 to 68,O=Cc1cccc(-c2nccs2)c1
15,78,Cc1cccc2cc3ccccc3c(=O)n12
16,156,COc1ccccc1NC(N)=S
17,88.5,O=c1c2ccccc2ccc2ccccc12
18,105 to 107,O=C1/C(=N\Nc2cccc(F)c2)C(C(F)(F)F)=NN1c1ccccc1
19,140 to 142,O=C(NC(Cc1ccccc1)C(=O)O)OCc1ccccc1[N+](=O)[O-] (stereo not given)
20,67 to 68,Nc1c(F)cc(Br)cc1F
21,157,Nc1nc(-c2cccc3ccccc23)cs1
22,72 to 73,O=C1c2ccccc2C(=O)N1CCOCCCl
23,88 to 89,S=C=Nc1cccc2nsnc12
24,208 to 209,Cc1ccc(C(=O)O)cc1Cl

row,melting point [°C],SMILES
1,250,Oc1ncnc2[nH]cnc12
2,65.5 to 66.5,CNCc1ccc(-c2cccs2)nc1
3,138 to 140,Cn1nccc1-c1cccc(C(=O)O)c1
4,137,Cc1ccc(S(N)(=O)=O)cc1Cl
5,67,CS(=O)(=O)c1ccc(OC(F)(F)F)cc1
6,2,Cc1cccc(Cl)c1N
7,208,Cc1ccc(C(=O)O)cc1I
8,90 to 92,O=C(N=C=S)c1ccc([N+](=O)[O-])cc1
9,140 to 142,O=C1C=C(NCCNc2ccccc2)C(=O)c2ccccc21
10,20,Cc1ccncc1[N+](=O)[O-]
11,51 to 53,O=Cc1ccc(-c2ccccn2)cc1
12,114,Cc1cc(=O)n(-c2ccccc2)n1C
13,195 to 197,CCOc1ccc(C=CC(=O)O)cc1
14,121 to 125,COc1cc2c(cc1OC)C(c1ccccc1)=NCC2
15,64 to 66,O=C(CBr)C(c1ccccc1)c1ccccc1
16,71.5,Cc1ccc(N=Nc2ccccc2)cc1
17,187,CC(=O)Nc1ccc(OC(=O)c2ccccc2O)cc1
18,159,Nc1ccc([N+](=O)[O-])c(Cl)c1
19,46,Nc1ccc(S)cc1
20,228 to 230,COc1ccccc1-c1nnc2n1NC(c1ccc(N(C)C)cc1)S2 (stereo not given)
21,10 to 11,COc1c(Cl)cccc1Cl
22,106 to 108,N#Cc1ccc(Oc2ccc(C(F)(F)F)cc2N)cc1
23,125,CCCC(C(N)=O)n1nnc2ccccc21 (stereo not given)
24,-80,Cc1cccc2cccnc12

row,melting point [°C],SMILES
1,109 to 110,Cc1ccc(S(=O)(=O)CC(=O)c2ccccc2)cc1
2,150,O=C(c1ccc(Cl)cc1)c1nn(-c2ccccc2)/c(=N\N=Cc2ccc(F)cc2)s1
3,202 to 204,O=C(O)c1cnn(-c2ccc([N+](=O)[O-])cc2)c1C(F)(F)F
4,254,CC(=O)Nc1cccc(N=[N+]([O-])c2cccc(NC(C)=O)c2)c1
5,320,Nn1c(S)nnc1-c1ccc(Cl)cc1
6,218 to 223,NC(=O)CC[C@H](NC(=O)OCC1c2ccccc2-c2ccccc21)C(=O)O
7,195,Cc1ccc2nc(-c3ccc(N)cc3)sc2c1
8,56,O=[N+]([O-])c1ccc(Sc2ccccc2)cc1
9,27 to 29,Cn1ccc2c(C=O)cccc21
10,163 to 168,Cc1ccc(C(N)=S)cc1
11,57 to 59,Nc1ccc(C2SCCS2)cc1
12,239 to 244,O=C(O)c1cn(C2CC2)c2cc(Cl)c(F)cc2c1=O
13,216 to 217,N#Cc1c(-c2ccc(Cl)cc2)n[nH]c1N
14,100,CC(C)c1cc(Cl)nc(N)n1
15,47,CCN(CC)C(=O)c1ccccc1CC(=O)c1ccccc1C
16,43,Cc1ccc2ocnc2c1
17,98,CC1=CC=CC2Cc3ccccc3C(=O)N12 (stereo not given)
18,237 to 238,O=C(O)c1cn(C2CCCCC2)c2ccccc2c1=O
19,194,Nc1ccc(Br)nn1
20,213 to 214,COc1ccc(-n2c(SC)nc3nc(SC)n(C)c3c2=O)cc1
21,113 to 115,O=Cc1c[nH]nc1-c1ccc(C(F)(F)F)cc1
22,112 to 113,Cc1nc(-c2ccc(C(=O)Cl)cc2)no1
